# Measured values reported in patent US20140241990A1, “METHODS OF USING ADENOSINE A1 RECEPTOR ACTIVATION FOR TREATING DEPRESSION” (TUFTS UNIVERSITY, priority 2011, published 2014).
# “Also recorded” adds a separate entry of the source.
# Assays:
# C57Bl/6J mice [1] = assay: Forced swim test (FST); type: in vivo, mouse; details: for duration of reduced immobility in forced swim test after onset of administration: cohorts tested 12, 36, 84 and 108 hours after first treatment
# Experimental: The forced swim test is typically performed in a quiet experimental room as described in previous reports (Porsolt, R. et al., Arch. Int. Pharmacodyn. Ther., 229:327-336, 1977). For a typical test, animals are placed, for example, into a plexiglass cylinder (25 cm height, 25 cm diameter) containing 20 cm height of water at 23-25 C for 10 min. The animals typically display very fast swimming initially, lasting 1-2 min, followed by increasing immobility. Immobile time is measured during the last 4 min of the total period for statistical analysis. The animals are videotaped and movements are digitized from above. Immobility can be automatically scored, for example, using Ethovision (Noldus Information Technology Inc., Leesburg, U.S.A.).
# The forced swim test (FST) was performed in a quiet experimental room. Animals where placed into a Plexiglass cylinder (25 cm height, 25 cm diameter) containing 20 cm height of water at 23-25° C. for 10 min. […] Immobile time was measured during the last 4 min of the total period for statistical analysis. The animals were videotaped and movements were digitized from above. Immobility was automatically scored using Ethovision (Noldus Information Technology Inc., Leesburg, U.S.A.). Results from tracking analysis were analyzed using ANOVA to compare means.
# mice [2] = assay: Sucrose consumption test (anhedonia); type: in vivo, mouse; details: i.c.v. CCPA, three bolus injections at ZT=0, 3 and 6; vehicle baseline 30.55±3.60 g/kg; p=0.008
# Experimental: Sucrose consumption experiments can be conducted known to one of skill in the art. For a typical test, mice are gradually acclimatized to increasing durations of water deprivation (0, 4, 8, 12, and 16 hours) and i.c.v. infusion of saline over the course of five days to minimize the stressfulness of the testing. On the sixth day, instead of receiving water at the end of the deprivation period, mice are given a 1% v/w solution of sucrose. This is repeated for three days (days 6-9) to establish baseline sucrose consumption levels. During the deprivation period preceding day 10, mice are given i.c.v. infusions of the identified test compound, followed by the presentation of sucrose as during baseline consumption testing. The average baseline (saline infusion) sucrose consumption is then compared to the average sucrose consumption following test compound infusion. Results are analyzed using a Student's t-test to compare means.
# Sucrose consumption was conducted (Papp, M. et al., Psychopharmacology (Berl.), 104:255-9, 1991). After the acclimatization and habituation period mice were given access to sucrose for three days (days 6-9) to establish baseline sucrose consumption levels. Mice were then given i.c.v. infusions of CCPA administered as a series of three bolus injections at ZT=0, 3 and 6, followed by the presentation of sucrose (day 10). […]
# mice [3] = assay: EEG/EMG recording, vigilance state scoring and power spectra; type: in vivo, mouse
# Excerpt: Mice were implanted with EEG and EMG electrodes under ketamine/xylazine anesthesia. After 5-7 days of post-operative recovery, lightweight recording cables were connected to the head implants and mice were placed in cylindrical polypropylene containers containing nest material, water and food ad libitum. Mice were acclimated to the sleep chamber for 5-7 days (12:12 light-dark (LD) cycle; lights on at 8 AM). EEGs and EMGs were then collected on a Pinnacle Technologies system and digitized at 1000 Hz. Following acclimation, baseline 24 h recordings were made.
# NonREM sleep (“NREM” sleep), REM sleep and wake were determined by an experimenter blind to experimental condition. On the baseline day, the amount of each state (expressed as a percentage of total recording time) and the duration of individual sleep and wake episodes were computed. Transitions between NREM sleep and REM sleep were also measured during the light phase. To investigate sleep the beneficial effects of sleep deprivation mice, mice were sleep deprived (SD) from 8 a.m. to 8 p.m. at the beginning of the major sleep period (light phase) using a Pinnacle sleep deprivation chamber. All EEG data were analyzed by normalizing each data point to the average power of the EEG from 0.5 to 40 Hz (FIG. 4), and by normalizing each data point (+12 hr, +36 hr, +84 hr, +108 hr) to the corresponding vehicle data points (FIG. 8).
# To investigate whether A1R activation alone is capable of altering the sleep architecture and mimicking the effects of sleep deprivation, the adenosine receptor agonist 2-chloro-N(6)-cyclopentyladenosine (CCPA; […]) was administered via i.c.v. cannulae. Following recovery and one week of habituation to the headstage, EEG activity was recorded from mice with i.c.v. saline vehicle infusion for two days to establish baseline EEG activity patterns. The EEG changes following injection of the A1R agonist CCPA were monitored. […] The normalized power from 0.5 to 4.0 Hz was also analyzed, comparing saline baseline to CCPA infusion (FIG. 4D).
# Adenosine agonists cause a sustained enhancement of delta power during wakefulness. As a final step in testing the antidepressive actions of adenosine activation of A1Rs was determined to be sufficient to mimic the effects of sleep deprivation on depressive-like behaviors. […] The adenosine receptor agonist 2-chloro-N(6)-cyclopentyladenosine (CCPA; 500 nM) was delivered i.c.v. while performing EEG/EMG recordings.
# mice [4] = assay: Open field test (locomotor activity); type: in vivo, mouse; details: wildtype mice treated i.c.v.
# Experimental: The open field test was performed in accordance with the […] resource phenotyping protocol (Brown, S. et al., Nat. Genet., 37:1155, 2005). Open field behavior of mice was videorecorded from above, and assessed using Ethovision. Results from tracking analysis were analyzed using ANOVA to compare means.
# mice [5] = assay: Rotorod test; type: in vivo, mouse; details: CCPA versus vehicle
# Excerpt: The rotorod used a rotating cylinder that was 4 cm in diameter, fixed 35 cm above the ground and enclosed by transparent Plexiglas. The rotorod cylinder was covered in textured rubber coating, which facilitates traction. A small electric motor provided power to turn the rotorod via a rubber belt. The rotorod was set to rotate once every 5 s.
# C57Bl/6J mice [6] = assay: Tail suspension test (TST); type: in vivo, mouse; details: CPT 4 mM i.c.v.
# Experimental: Results from tracking analysis were analyzed using ANOVA to compare means.
# A1R = target: T1, A1R (Mus musculus, UniProt Q60612); assay: fEPSP enhancement at Schaeffer collateral synapse of hippocampal area CA1 in acute slices (adenosine tone); type: cell-based; details: CPT 200 nM
# T1 construct: from tissue; host or cells: acute mouse hippocampal slices (C57Bl/6J background; wild type and dnSNARE mice)
# T1 sequence (Q60612 1-326): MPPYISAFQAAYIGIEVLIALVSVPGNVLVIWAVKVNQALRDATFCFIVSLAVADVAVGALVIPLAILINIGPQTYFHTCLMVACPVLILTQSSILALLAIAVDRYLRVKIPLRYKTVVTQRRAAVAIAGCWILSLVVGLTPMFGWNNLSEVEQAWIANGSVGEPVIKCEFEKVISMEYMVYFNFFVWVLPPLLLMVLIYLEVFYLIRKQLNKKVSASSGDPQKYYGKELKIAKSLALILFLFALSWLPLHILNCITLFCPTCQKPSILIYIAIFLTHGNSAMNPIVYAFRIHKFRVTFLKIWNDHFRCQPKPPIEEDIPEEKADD
# Experimental: Mice were briefly anaesthetized with isofluorane and then decapitated, and slices were prepared (Manzoni, O. et al., Science, 265:2098-101, 1994). The brain was rapidly extracted in cold cutting solution (124 mM NaCl, 26 mM NaHCO3, 1 mM NaHPO4, 10 mM Glucose, 1 mM sodium pyruvate, 0.6 mM ascorbate, 2.9 mM KCl, 1 mM CaCl2, 2 mM MgCl2) bubbled continuously with a 95% O2 5% CO2 gas mixture. Slices 310 μm thick were cut using a Leica VT 1000S Vibratome. Isolated hippocampal slices were transferred to a bath containing continuously oxygenated cutting solution and incubated at 30 C for a 1.5 hour recovery period. Extracellular recordings were conducted in artificial cerebrospinal fluid (aCSF, 124 mM NaCl, 26 mM NaHCO3, 1 mM NaHPO4, 10 mM Glucose, 1 mM sodium pyruvate, 2.9 mM KCl, 2 mM CaCl2, 1 mM MgCl2) continuously superfused at 1.2 mL/minute and maintained at 32.8 C. Extracellular stimulation were delivered using a 125 μm concentric Pt—Ir electrode in unipolar mode with a pulse width of 0.1 ms.
# A relative measure of the extracellular adenosine level can be obtained by determining the proportional enhancement of synaptic transmission in response to the application of the A1R antagonist 8-cyclopentyltheophylline (CPT; 200 nM) an approach that has been validated using electrochemical biosensors (Schmitt, L. et al., J. Neurosci., 32:4417-25, 2012).
# The physiological mechanisms underlying the effects of sleep deprivation was investigated by asking whether sleep deprivation leads to an elevation of extracellular adenosine. A relative measure of the extracellular adenosine level can be obtained by determining the proportional enhancement of synaptic transmission in response to the application of the A1R antagonist 8-cyclopentyltheophylline (CPT; 200 nM). Independent measurements of extracellular adenosine using electrochemical biosensors have validated this approach. Field excitatory postsynaptic potentials (fEPSP) were measured at the Schaeffer collateral synapse of hippocampal area CA1 before and following application of CPT.
# [7] = CCPA 500 nm i.c.v., percentage of recording time
compound,measurement,setting,value
"OCC1OC(n2cnc3c(NC4CCCC4)nc(Cl)nc32)C(O)C1O (centres unmarked) [CCPA, 2-(2-chloro-6-(cyclopentylamino)-9H-purin-9-yl)-5-(hydroxymethyl)tetrahydrofuran-3,4-diol]",beneficial effects in forced swim test 3 and 5 days after infusion,C57Bl/6J mice [1]; 3 and 5 days after infusion,no longer observed
same,"effect on immobile time, forced swim test","C57Bl/6J mice [1]; CCPA i.c.v. (ZT=0, 3 and 6), tested at ZT=12",decreased immobile time; also recorded: reduction in immobile time; also recorded: significantly reduces immobility
same,duration of reduced immobility in forced swim test after onset of administration,C57Bl/6J mice [1],36 h
same,duration of reduced immobility in forced swim test after onset of administration,C57Bl/6J mice [1]; listed as COPA,up to 36 hours
same,duration of beneficial effects in forced swim test,"C57Bl/6J mice [1]; three i.c.v. injections spaced evenly across a 12 hour period, cohorts at 24 hours, +1, +3, +5 days",24 h
same,sucrose consumption,mice [2],51.45 ± 6.35 g/kg
same,percent wake at 12 h after administration,mice [3]; 12 h (ZT 12) after CCPA,significantly greater percentage of time awake; also recorded: increased percent wake
same,increased percent wake at 36 h after administration,mice [3]; 36 h following CCPA,no longer present
same,EEG power spectra compared to baseline saline,mice [3]; CCPA 500 nm i.c.v.,dramatic increase in the power spectra
same,duration of REM sleep,mice [3]; [7],18.13±1.30%
same,duration of non-REM sleep,mice [3]; [7],48.75±1.85%
same,duration of wake,mice [3]; [7],31.38±1.93%
same,delta power (0.5-4 Hz) during wakefulness after mice awoke,"mice [3]; CCPA i.c.v. ZT=0, 3 and 6, p<0.001",prominent increase in delta power
same,percentage of time awake during administration,"mice [3]; CCPA i.c.v. infusion, 500 nM",transient decrease; also recorded: decreased
same,acute effect on delta power,"mice [3]; acute, during CCPA action",reduce delta power
same,time after last administration by which effects on sleep had reversed,"mice [3]; reversed by ZT=11, last administration at ZT=6",≤ 5 h
same,time asleep ZT 1 through 10 compared to vehicle,"mice [3]; three consecutive CCPA infusions (ZT=0, 3, 6), 500 nM i.c.v., p<0.002",significantly greater time
same,locomotor activity / total distance traveled in open field,mice [4],without accompanying changes in locomotor activity; also recorded: do not differ
same,latency to fall / locomotor activity in rotorod test,mice [5],without accompanying changes in locomotor activity; also recorded: do not differ
CN(C)CCCN1c2ccccc2CCc2ccccc21 [imipramine],immobility in behavioral despair tasks,C57Bl/6J mice [1]; 14 days of treatment,reduces immobility
same,"time spent immobile, forced swim test","C57Bl/6J mice [1]; wildtype littermates, imipramine 20 mg/kg, chronic 14 days",73.00 ± 9.53 s
"Cn1c(=O)c2[nH]c(C3CCCC3)nc2n(C)c1=O [CPT, 8-cyclopentyltheophylline]","basal immobility, forced swim test","C57Bl/6J mice [1]; CPT 4 mM i.c.v., no sleep deprivation",176.43 ± 21.77 s
same,"immobility after sleep deprivation, forced swim test","C57Bl/6J mice [1]; CPT 4 mM i.c.v., sleep deprivation",167.70 ± 18.89 s
same,"basal immobility, tail suspension test",C57Bl/6J mice [6]; no sleep deprivation,187.60 ± 11.46 s
same,"immobility after sleep deprivation, tail suspension test",C57Bl/6J mice [6]; sleep deprivation,204.00 ± 3.58 s
same,increase in fEPSP (adenosine tone),"A1R; WT undisturbed mice, ZT=0",481.70±85.04%
same,proportional enhancement of fEPSP (adenosine tone),"A1R; WT, ZT=12 (end of light phase)",128.15±28.91%
same,adenosine tone (fEPSP enhancement),"A1R; after 72 h of sleep deprivation, ZT=0",104.62±18.31%
same,adenosine tone (fEPSP enhancement),"A1R; dnSNARE, ZT=0",61.98±16.80%
same,adenosine tone (fEPSP enhancement),"A1R; dnSNARE, ZT=12",27.91±5.10%
same,adenosine tone (fEPSP enhancement),A1R; transient total sleep deprivation ZT 0 to ZT 12,367.61±24.95%
same,locomotor activity / total distance traveled in open field,mice [4],do not differ
